Patent publication US5817670A, “Naphthyridine derivatives and pharmaceutical compositions thereof” (Yamanouchi Pharmaceutical Co., Ltd., priority 1994, dated 1998)
Where a name gives a salt, the structure may show the parent alone.

Key:
type V phosphodiesterase = target: T1, type V phosphodiesterase (Homo sapiens, UniProt O76074); test: Phosphodiesterase inhibition activity (in vitro), Type V; format: biochemical, human (peripheral blood of a healthy person); conditions: 1 μM cGMP
T1 construct: from tissue; host or cells: human peripheral blood granulocyte fraction, soluble, Q Sepharose
Text: (§1) (A) In order to evaluate selectivity of the compounds of the present invention for type IV phosphodiesterase, types I, II, III and V phosphodiesterase isozymes were purified in the following manner.
(§2) 2) Solutions containing various phosphodiesterase isozymes were obtained from the thus obtained soluble fraction in the following manner. The thus, obtained soluble fraction was applied to a column of 1.6×10.0 cm packed with Q Sepharose which had been equilibrated with buffer A. Next, said column was washed with 300 ml of buffer A to remove non-absorbed protein. Phosphodiesterase was eluted with 200 ml of buffer A having 0.05 to 1.25M linear gradient of sodium acetate to collect about 40 fractions each containing 5.0 ml eluate. Each fraction was checked for cAMP- and cGMP-metabolizing phosphodiesterase activities. Of these fractions, a fraction having only cAMP-metabolizing activity and showing disappearance of the metabolizing activity by 0.1 μM cilostamide (a type III phosphodiesterase selective inhibitor) was used as the type III phosphodiesterase. […] These fractions were separately collected to be used as phosphodiesterase (types I, II and III) stock solutions for the examination of selectivity. p1 3) A solution containing type V phosphodiesterase was prepared from peripheral blood of a healthy person in the following manner. A 200 ml portion of physiological saline supplemented with dextran (3%) was added to 500 ml of heparinized peripheral blood and incubated at 37° C. for 40 minutes to effect precipitation of erythrocytes. The supernatant fluid after precipitation of erythrocytes was recovered and centrifuged once, and the resulting precipitate was suspended in buffer B (140 mM NaCl, 5 mM KCl, 5 mm glucose and 10 mM HEPES, pH 7.4), overlaid on a solution for density gradient centrifugation use (Ficoll solution) and then centrifuged at room temperature for 40 minutes at 450×g, thereby separating monocyte fraction and granulocyte fraction. The granulocyte fraction was washed once with buffer C (140 mM NaCl, 5 mM KCl, 1 mM CaCl2, 1 mM MgCl2, 5 mM glucose and 10 mM HEPES, pH 7.4) and suspended in buffer D (20 mM Bis-Tris, 5 mM dithioerythritol, 2 mM EGTA and 50 mM sodium acetate, pH 6.5) containing a protease inhibitor (40 μM leupeptin, 5 μM pepstatin A, 20 μM aprotinin, 50 μM phenyl-methyl-sulfonyl-fluoride or 2 mM benzamidine) and then the cells were disrupted using polytron and sonicator and subjected to ultracentrifugation (4° C., 100,000×g, 60 minutes) to give a soluble fraction.
4) The thus obtained soluble fraction was applied to a column of 1.6×10 cm packed with Q Sepharose which had been equilibrated with buffer D. Next, the column was washed with 120 ml of buffer D to remove non-absorbed protein. Phosphodiesterase was eluted with 300 ml of buffer D having 0.05 to 1.25M linear gradient of sodium acetate to collect fractions each containing 5.0 ml eluate. Each fraction was checked for cAMP- and cGMP-metabolizing phosphodiesterase activities. Fractions having only cGMP metabolizing activity were collected to be used as the type V phosphodiesterase stock solution.
(§3) (B) Inhibitory activities were measured using the thus obtained stock solutions of various phosphodiesterase isozymes.
1) A predetermined amount of each compound to be tested was subjected to 10 minutes of reaction at 30° C. in a reaction mixture containing 40 mM Tris-HCl (pH 8.0), 5 mM MgCl2, 4 mM 2-mercaptoethanol, 10 μM rolipram (a type IV phosphodiesterase selective inhibitor), 1 μM cAMP, 10 nM ^3 H-cAMP (in the case of type V phosphodiesterase, 1 μM cAMP and 10 nM ^3 H-cAMP are replaced by 1 μM cGMP and 100 nM ^3 H-cGMP) and each of the isozyme stock solutions. After completion of the reaction, the reaction mixture was boiled at 90° C. for 1 minute, ice-cooled, mixed with 1 unit of 5'-nucleotidase and then subjected to 10 minutes of reaction at 30° C., and the reaction was stopped by adding 1 ml of methanol. […]

[1] = target: type III phosphodiesterase; test: Phosphodiesterase inhibition activity (in vitro), Type III; format: biochemical, rat
Text: as §1
1) Solutions containing various phosphodiesterase (types I, II and III) isozymes were purified from rat heart muscle cells in the following manner. Under ether anesthesia, Wistar rat was subjected to thoracotomy to excise the heart. After removing blood by perfusion with physiological saline supplemented with heparin (1 unit/ml), the heart was finely chopped with scissors. This was suspended in buffer A (20 mM Bis-Tris, 5 mM dithioerythritol, 2 mM EGTA and 50 mM sodium acetate, pH 6.5) containing a protease inhibitor (50 μM phenyl-methyl-sulfonyl-fluoride, 5 μM pepstatin A, 40 μM leupeptin, 20 μM aprotinin or 2 mM benzamidine) and then the cells were disrupted using polytron and sonicator and subjected to ultracentrifugation (4° C., 100,000×g, 60 minutes) to give a soluble fraction.
as §2, §3
1) A predetermined amount of each compound to be tested was subjected to 10 minutes of reaction at 30° C. in a reaction mixture containing 40 mM Tris-HCl (pH 8.0), 5 mM MgCl2, 4 mM 2-mercaptoethanol, 10 μM rolipram (a type IV phosphodiesterase selective inhibitor), 1 μM cAMP, 10 nM ^3 H-cAMP (in the case of type V phosphodiesterase, 1 μM cAMP and 10 nM ^3 H-cAMP are replaced by 1 μM cGMP and 100 nM ^3 H-cGMP) and each of the isozyme stock solutions. […]

Row | Compound | IC50 (type V phosphodiesterase) [µM] | IC50 [1] [µM]
1 | CCc1cc(C)c2c(-c3cccc(Br)c3)cc(=O)n(CC)c2n1 [Example 31, 4-(3-bromophenyl)-1,7-diethyl-5-methyl-1,8-naphthyridin-2(1H)-one] | > 30 | > 30
2 | CCc1cc(C)c2c(C3CCCCC3)cc(=O)n(CC)c2n1 [Example 49, 4-cyclohexyl-1,7-diethyl-5-methyl-1,8-naphthyridin-2(1H)-one] | 3.87 | 27.3
3 | CCn1c(=O)cc(-c2cccc(Cl)c2)c2cccnc21 [Example 15, 4-(3-Chlorophenyl)-1-ethyl-1,8-naphthyridin-2(1H)-one] | 41.2 | 50.3
4 | CCc1cc(C)c2c(-c3cccc(Cl)c3)cc(=O)n(C)c2n1 [Example 27, 4-(3-Chlorophenyl)-7-ethyl-1,5-dimethyl-1,8-naphthyridin-2(1H)-one] | 27.9 | 15.5
5 | CCCn1c(=O)cc(-c2cccc(Br)c2)c2c(C)cc(CC)nc21 [Example 33, 4-(3-Bromophenyl)-7-ethyl-5-methyl-1-propyl-1,8-naphthyridin-2(1H)-one] | 8.39 | 17.7
6 | CCn1c(=O)cc(-c2cccc(Cl)c2)c2c(C)cc(C)nc21 [Example 29, 4-(3-Chlorophenyl)-1-ethyl-5,7-dimethyl-1,8-naphthyridin-2(1H)-one] | 24.6 | 14.3
7 | CCn1c(=O)cc(-c2ccccc2)c2c(C)cc(C)nc21 [Example 38, 1-Ethyl-5,7-dimethyl-4-phenyl-1,8-naphthyridin-2(1H)-one] | 19.6 | > 30
8 | CCn1c(=O)cc(-c2cccc(Br)c2)c2c(C)cc(C)nc21 [Example 30, 4-(3-Bromophenyl)-1-ethyl-5,7-dimethyl-1,8-naphthyridin-2(1H)-one] | 8.66 | 10.9
9 | CCc1cc(C)c2c(-c3cccc(Cl)c3)cc(=S)n(C)c2n1 [Example 43, 4-(3-chlorophenyl)-7-ethyl-1,5-dimethyl-1,8-naphthyridine-2(1H)-thione] | 4.79 | > 30
10 | CCc1cc(C)c2c(-c3cccc(Cl)c3)cc(=O)n(C3CC3)c2n1 [Example 35, 4-(3-Chlorophenyl)-1-cyclopropyl-7-ethyl-5-methyl-1,8-naphthyridin-2(1H)-on] | 41.6 | 34.4
11 | Cc1cc(C)c2c(-c3cccc(Cl)c3)cc(=O)n(C)c2n1 [Example 24, 4-(3-chlorophenyl)-1,5,7-trimethyl-1,8-naphthyridin-2(1H)-one] | 9.7 | 21.5
12 | CCc1cc(C)c2c(-c3ccccc3)cc(=O)n(CC)c2n1 [Example 40, 1,7-Diethyl-5-methyl-4-phenyl-1,8-naphthyridin-2(1H)-one] | 14.5 | 32.3
13 | CCn1c(=O)cc(C2CCCCC2)c2cccnc21 [Example 46, 4-cyclohexyl-1-ethyl-1,8-naphthyridin-2(1H)-one 0.45 hydrochloride 0.25 hydrate] | 87 | > 30
14 | CCc1cc(C)c2c(-c3ccccc3)cc(=O)n(C)c2n1 [Example 26, 7-Ethyl-1,5-dimethyl-4-phenyl-1,8-naphthyridin-2(1H)-one] | 27.3 | 56.2
